{
  "source": "patent US20130337052A1",
  "about": "“System and Method of Reducing Impairment of Alertness, Concentration, Motivation, and Creativity Caused by Medication” (priority 2012, published 2013)",
  "key": {"CB1 receptors": {"target": "CB1 receptors (Homo sapiens, UniProt P21554)", "sequence (P21554 whole entry)": "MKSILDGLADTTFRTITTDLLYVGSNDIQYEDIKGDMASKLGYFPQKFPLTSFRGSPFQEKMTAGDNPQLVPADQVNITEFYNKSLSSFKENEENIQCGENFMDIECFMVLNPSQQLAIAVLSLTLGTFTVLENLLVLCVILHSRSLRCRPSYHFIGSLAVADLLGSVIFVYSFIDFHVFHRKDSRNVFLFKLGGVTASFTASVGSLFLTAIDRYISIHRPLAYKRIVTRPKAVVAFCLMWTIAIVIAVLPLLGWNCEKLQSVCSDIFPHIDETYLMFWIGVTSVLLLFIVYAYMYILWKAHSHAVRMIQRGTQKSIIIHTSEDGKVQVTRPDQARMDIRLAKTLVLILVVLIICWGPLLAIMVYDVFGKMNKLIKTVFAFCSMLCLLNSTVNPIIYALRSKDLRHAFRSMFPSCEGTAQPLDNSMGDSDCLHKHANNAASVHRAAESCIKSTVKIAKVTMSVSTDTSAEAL", "conditions": "relative to THC; cited from earlier work"}, "CB2 receptors": {"target": "CB2 receptors (Homo sapiens, UniProt P34972)", "sequence (P34972 whole entry)": "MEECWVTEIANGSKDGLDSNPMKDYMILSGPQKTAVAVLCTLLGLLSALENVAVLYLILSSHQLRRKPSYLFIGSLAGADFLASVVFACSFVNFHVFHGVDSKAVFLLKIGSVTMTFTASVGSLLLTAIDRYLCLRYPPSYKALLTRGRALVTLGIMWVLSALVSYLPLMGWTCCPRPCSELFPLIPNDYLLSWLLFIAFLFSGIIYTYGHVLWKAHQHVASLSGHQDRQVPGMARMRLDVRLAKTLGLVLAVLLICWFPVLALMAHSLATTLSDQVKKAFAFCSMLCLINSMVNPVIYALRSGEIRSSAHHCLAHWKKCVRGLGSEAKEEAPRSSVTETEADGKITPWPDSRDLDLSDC", "conditions": "relative to THC; cited from earlier work"}, "[1]": {"conditions": "patients received up to 210 milligrams per day; cited from earlier work"}, "[2]": {"test": "Side effects reported by patients using a medication containing THC", "type": "in vivo, human", "conditions": "e.g. Marinol", "text": "Patients using cannabinoid medications 10 prescribed for the treatment of symptoms such as pain and experiencing the undesirable side effects of the cannabinoid medications may provide relief through the administration of lithium compounds 30. […] Patients also reported a lack of motivation and a reduction in creativity while taking the medication. As a result, the patients have been unable or unwilling to perform ordinary tasks, such as, e.g., tasks associated with the patient's employment. However, upon treatment with lithium compounds 30, the alertness, concentration, motivation, and creativity of the patients were restored. As a result, the patients were able to continue to work productively while using the cannabinoid-based medication."}, "[3]": {"conditions": "lithium citrate syrup compared to lithium carbonate tablets; cited from earlier work"}, "[4]": {"conditions": "150 milligrams per day; cited from earlier work"}},
  "data": [
    {"smiles": "CCCCCc1cc(O)c2c(c1)OC(C)(C)c1ccc(C)cc1-2", "note": "[CBN, cannabinol]", "values": [
      {"measurement": "agonist effect on the CB1 receptor compared with THC", "setting": "CB1 receptors", "value": "weaker agonist effect"},
      {"measurement": "agonist effect on the CB2 receptor compared with THC", "setting": "CB2 receptors", "value": "weaker agonist effect"}
    ]},
    {"smiles": "CCCCCc1cc(O)c2c(c1)OC(C)(C)[C@@H]1CCC(C)=C[C@@H]21", "note": "[THC, (−)-trans-Δ9-tetrahydrocannabinol]", "values": [
      {"measurement": "toxic effects in clinical studies", "setting": "[1]", "value": "without toxic effects"},
      {"measurement": "side effects experienced by patients", "setting": "[2]", "value": "difficulty staying awake and maintaining concentration"}
    ]},
    {"smiles": "O=C([O-])CC(O)(CC(=O)[O-])C(=O)[O-].[Li+].[Li+].[Li+]", "note": "[lithium citrate]", "values": [
      {"measurement": "rate at which lithium enters the body", "setting": "[3]", "value": "more rapidly"}
    ]},
    {"smiles": "O=C([O-])c1cc(=O)[nH]c(=O)[nH]1.[Li+]", "note": "[lithium orotate]", "values": [
      {"measurement": "effect in the treatment of alcohol addiction", "setting": "[4]", "value": "beneficial"}
    ]}
  ]
}
